Patent publication US11116732B2, “Carotenoid-containing cognitive function improving composition for use in exercise therapy for improving cognitive function” (ASTAREAL CO., LTD., priority 2016, dated 2021)

Assays:
[1] = tested on: adult hippocampal neurogenesis (hippocampal dentate gyrus); test: Adult hippocampal neurogenesis (AHN): immunohistochemical count of Ki67+, BrdU+ and BrdU+/NeuN+ cells after 4 weeks of ASX uptake with or without low intensity exercise; assay type: in vivo, mouse; details: for number of newly matured cells (BrdU+/NeuN+), rate of change relative to the CON group / number of proliferating cells (Ki67+), rate of change relative to the CON group / number of viable cells (BrdU+), rate of change relative to the CON group: 4 weeks
Excerpt: (§1) For the purpose of clarifying whether or not hippocampal function improving effect is enhanced by low intensity exercise, influence of combined use of low intensity exercise (7 m/min) of VT or less and ASX uptake (0.5% by weight) on AHN and spatial cognitive function was investigated.
(§2) All the mice used in this experiment were divided so that the weight was equalized at the preliminary breeding end point. These were divided into four groups of placebo+rest (CON), placebo+low intensity exercise (ME), 0.5% ASX uptake+rest (ASX), and the low intensity exercise+0.5% ASX uptake (ME+ASX) (FIG. 5). Mice were bred each one per a cage.
0.5% ASX uptake or placebo uptake was carried out.
The mice in the low intensity exercise group imposed a treadmill running exercise of 7 m/min for 30 minutes a day. Also, the mice in the rest group were placed on the treadmill for equal time with the running exercise training and were not allowed to exercise anything (control experiment). For the running exercise training, a treadmill for small animals (KN-73, Natsume, Japan) was used. In either of the groups, training or control experiment was imposed once a day in the dark period, which became active for mice.
BrdU (bromodeoxyuridine) is taken up as an analog molecule of thymidine into the cell nucleus at the S phase of the cell cycle and is used to evaluate cell division, proliferation, and subsequent survival. Thus, BrdU (100 mg/kg BW) was intraperitoneally administered to all mice during three days before starting running exercise and 0.5% ASX uptake (FIG. 5). Administration was carried out only once a day (AM8:00).
Immunohistochemical staining method is a method of labeling and visualizing a target DNA or protein on a tissue utilizing an antigen antibody reaction. In visualization, it is carried out by labelling an enzyme or a fluorescent substance, etc., which is a substance to be a marker, to an antibody which bounds to an antigen, and reacting with the marker to colorize the antibody adhered portion. In this experiment, fluorescent antibody method was used for evaluation of proliferating cells, viable cells and newly matured neurons.
In this experiment, BrdU was identified for the evaluation of neoplastic cells. For identification, rat anti-BrdU antibody (Rat anti-BrdU, AbD Serotec) was used as a primary antibody and CyTM3 donkey anti-rat IgG antibody (Cy3 Donkey Anti-Rat IgG, JACKSON) was used as a secondary antibody to fluorescently label with red color and visualized. In addition, for identification of mature neurons, mouse anti-NeuN antibody (Mouse Anti-Neuronal Nuclei monoclonal antibody, Chemicon) was used as a primary antibody, and for visualization, a fluorescently labeled secondary antibody AMCA donkey anti-mouse IgG antibody (AMCA Donkey Anti-Mouse IgG, JACKSON) was used and stained to blue color.
According to this procedure, newly matured cells were evaluated by BrdU+/NeuN+ reaction (red+bluish white). The procedures of the fluorescent antibody method were shown below.
In this experiment, for evaluation of cell proliferation, it was identified by Ki67. For identification, rabbit anti-Ki67 antibody (Rabbit anti-Ki67, Abcam) was used as a primary antibody, and Alexa 555 anti-rabbit IgG antibody (Goat Alexa 555 anti-rabbit IgG, Biotium) was used as a secondary antibody to fluorescently label with red color and visualized. In addition, for identification of the matured neurons, mouse anti-NeuN antibody (Mouse Anti-Neuronal Nuclei monoclonal antibody, Chemicon) was used as a primary antibody, and for visualization, a fluorescently labeled secondary antibody AMCA donkey anti-mouse IgG antibody (AMCA Donkey Anti-Mouse IgG, JACKSON) was used and stained to blue color. According to this procedure, newly matured cells were evaluated by Ki67+/NeuN+reaction (red+bluish white). The procedures of the fluorescent antibody method were shown below.
All data were expressed as an average value±standard error of each sample. […]

[2] = tested on: spatial learning memory ability; test: Morris water maze (MWM): place learning escape training and probe test; assay type: in vivo, mouse; details: for escape time during place learning escape training: P<0.05
Excerpt: as §1, §2
2-11. Evaluation of Spatial Learning Memory Ability: Morris Water Maze (MWM)
Evaluation of spatial learning memory ability was carried out.
Here, in order to clarify whether or not improvement of the hippocampal function due to the low intensity exercise is enhanced by ASX uptake, influence of combined use of the low intensity exercise of VT or less and 0.5% ASX uptake on AHN and spatial learning memory ability was investigated. For the evaluation of AHN, the numbers of proliferating cells (Ki67+), viable cells (BrdU+), and newly matured cells (BrdU+/NeuN+) were counted using immunohistochemical staining method and the result thereof was shown by the rate of change relative to the CON group. Also, the spatial learning memory ability was evaluated using the MWM with regard to acquiring ability (learning) of memory by the place learning escape training for 4 days, and retention and recollection ability of memory by the probe test on the fifth day.

[3] = tested on: hippocampal gene expression; test: Hippocampal gene expression by DNA microarray and IPA network analysis; assay type: in vivo, mouse
Excerpt: (§3) All the mice used in this experiment were divided so that the weight was equalized at the preliminary breeding end point. These were divided into three groups of placebo+rest (CON), placebo+low intensity exercise (ME), and low intensity exercise+0.5% ASX uptake (ME+ASX) (each n=8). Mice were bred each one per a cage.
The brain was removed two days after 4 weeks training and ASX uptake. The hippocampus was fractionated from the collected brain (Hirano M, Rakwal R, Shibato J, Sawa H, Nagashima K, Ogawa Y, Yoshida Y, Iwahashi H, Niki E, Masuo Y. Proteomics- and transcriptomics-based screening of differentially expressed proteins and genes in brain of Wig rat: a model for attention deficit hyperactivity disorder (ADHD) research. J Proteome Res 7: 2471-2489, 2008). The hippocampus was immediately frozen with liquid nitrogen and stored in a freezer at −80° C. […]
3) Hybridization: Samples of fluorescently labeled control group (CON group) and experiment group (ME group, ME+ASX group) are assayed on the same Microarray chip and hybridized with a 60 base pair probe on the slide glass. […] In the program at this time, the color intensity of Cy3 and Cy5 of all the probes was measured. 6) Standardization of data: For standardization of data, LOWESS (locally weighted linear regression) was used, and logarithmic and logarithmic error rates standardized from Cy3 and Cy5 signals were calculated. […]

[4] = tested on: hippocampal mRNA expression; test: Hippocampal mRNA expression by RT-PCR; assay type: in vivo, mouse
Excerpt: as §3
The brain was removed two days after 4 weeks training and ASX uptake. The hippocampus was fractionated from the collected brain (Hirano M, Rakwal R, Shibato J, Sawa H, Nagashima K, Ogawa Y, Yoshida Y, Iwahashi H, Niki E, Masuo Y. Proteomics- and transcriptomics-based screening of differentially expressed proteins and genes in brain of Wig rat: a model for attention deficit hyperactivity disorder (ADHD) research. J Proteome Res 7: 2471-2489, 2008). The hippocampus was immediately frozen with liquid nitrogen and stored in a freezer at −80° C.
In order to confirm the reproducibility and validity of the molecular mechanism estimated by the microarray and IPA analysis, 12 genes were picked up and the changes in their gene expression were reexamined by RT-PCR.
All data were expressed as an average value±standard error. For statistical processing of RT-PCR, after one-way analysis of variance (One-way ANOVA), the Bonferroni's tests method was used as post-hoc. All the significance levels were set to less than 5%.

neural progenitor cells = details: in vitro; cited from earlier work
[5] = tested on: nerve injury due to epilepsy; details: rat, in vivo; cited from earlier work
[6] = in vivo; cited from earlier work
[7] = ASX group compared with the CON group, P<0.05
[8] = ASX group: 0.5% ASX uptake + rest
[9] = ME+ASX group: low intensity exercise (7 m/min) + 0.5% ASX uptake

CC1=C(/C=C/C(C)=C/C=C/C(C)=C/C=C/C=C(C)/C=C/C=C(C)/C=C/C2=C(C)C(=O)[C@@H](O)CC2(C)C)C(C)(C)C[C@H](O)C1=O [ASX, astaxanthin]
number of BrdU positive cells [1, 7]: significant increase
number of BrdU/NeuN positive cells [1, 7]: significant increase
number of Ki67 positive cells [1, 7]: significant increase
number of newly matured cells (BrdU+/NeuN+), rate of change relative to the CON group [1, 8]: +46.3%
number of proliferating cells (Ki67+), rate of change relative to the CON group [1, 8]: +16.9%
number of viable cells (BrdU+), rate of change relative to the CON group [1, 8]: +44.9%
effect of the combination of low intensity exercise and ASX uptake on AHN and hippocampal function, against the sum of the ME group and the ASX group ([1]; ME+ASX group): synergistically increases
number of Ki67 positive cells ([1]; ME+ASX group compared with the ME group and the ASX group, P<0.001): significant increase
number of BrdU positive cells ([1]; ME+ASX group compared with the ME group and the ASX group, P<0.05): significant increase
number of newly matured cells (BrdU+/NeuN+), rate of change relative to the CON group [1, 9]: +102.9%
number of proliferating cells (Ki67+), rate of change relative to the CON group [1, 9]: +52.3%
number of viable cells (BrdU+), rate of change relative to the CON group [1, 9]: +95.7%
spatial memory capacity, increase rate for the CON group ([2]; ASX group): 25.9%
result of the MWM ([2]; ASX group, 0.5% ASX uptake): significantly improved
escape time during place learning escape training ([2]; ASX group, fourth day): significant shortening
probe test: ratio of the cumulative time of swimming within the quadrant where the platform existed to the total swimming time [2, 8]: 30.5%
spatial memory capacity, increase rate for the CON group ([2]; ME+ASX group): 60.6%
escape time during place learning escape training ([2]; ME+ASX group compared with the CON, third day): significant shortening
probe test: ratio of the cumulative time of swimming within the quadrant where the platform existed to the total swimming time ([2]; ME+ASX group: low intensity exercise + 0.5% ASX uptake): 39.9%
swimming speed ([2]; among the groups (CON, ME, ASX, ME+ASX)): no significant difference
Igflr (insulin-like growth factor 1 receptor) gene expression (IPA network analysis) ([3]; ME+ASX group only): estimated to enhance
Lep and Cxcr4 gene expression (IPA network analysis) ([3]; ME+ASX group, similar to the ME group): enhancement
mRNA expression of Cxcr4, Stat3, Mapk1 and Jak2 ([4]; ME+ASX group (also in the ME group)): significantly increased
mRNA expression of Psen1, Notch2, Igflr, Igfl, Pi3k and Creb ([4]; only in the ME+ASX group): increased significantly
proliferation of neural progenitor cells (neural progenitor cells): enhances the proliferation of neural progenitor cells
protection against nerve injury due to epilepsy [5]: protect against nerve injury due to epilepsy
passage through the blood brain barrier [6]: moves through the blood brain barrier into the brain
